ChEMBL document CHEMBL4665869, “New thiazolopyrimidine as anticancer agents: Synthesis, biological evaluation, DNA binding, molecular modeling and ADMET study” (Bioorg Med Chem Lett, 2020)
≈ marks a conversion by molar mass, not a printed value.

Key:
[1] = system: IGROV-1; experiment: Growth inhibition of human IGROV-1 cells at 10 uM relative to control; format: functional; conditions: read-out: GI
[2] = system: SN12C; experiment: Growth inhibition of human SN12C cells at 10 uM relative to control; format: functional; conditions: read-out: GI
[3] = system: U-251; experiment: Growth inhibition of human U-251 cells at 10 uM relative to control; format: functional; conditions: read-out: GI
[4] = system: M14; experiment: Growth inhibition of human M14 cells at 10 uM relative to control; format: functional; conditions: read-out: GI
[5] = system: RPMI-8226; experiment: Growth inhibition of human RPMI-8226 cells at 10 uM relative to control; format: functional; conditions: read-out: GI
[6] = system: SK-MEL-28; experiment: Growth inhibition of human SK-MEL-28 cells at 10 uM relative to control; format: functional; conditions: read-out: GI
[7] = system: HL-60(TB); experiment: Growth inhibition of human HL-60(TB) cells at 10 uM relative to control; format: functional; conditions: read-out: GI
[8] = system: UO-31; experiment: Growth inhibition of human UO-31 cells at 10 uM relative to control; format: functional; conditions: read-out: GI
[9] = system: Malme-3M; experiment: Growth inhibition of human Malme-3M cells at 10 uM relative to control; format: functional; conditions: read-out: GI
[10] = system: SNB-75; experiment: Growth inhibition of human SNB-75 cells at 10 uM relative to control; format: functional; conditions: read-out: GI
[11] = system: NCI-H226; experiment: Growth inhibition of human NCI-H226 cells at 10 uM relative to control; format: functional; conditions: read-out: GI
[12] = system: A549; experiment: Growth inhibition of human A549 cells at 10 uM relative to control; format: functional; conditions: read-out: GI
[13] = system: NCI-H522; experiment: Growth inhibition of human NCI-H522 cells at 10 uM relative to control; format: functional; conditions: read-out: GI
[14] = system: HCT-116; experiment: Growth inhibition of human HCT-116 cells at 10 uM relative to control; format: functional; conditions: read-out: GI
[15] = system: LOX IMVI; experiment: Growth inhibition of human LOX IMVI cells at 10 uM relative to control; format: functional; conditions: read-out: GI
[16] = system: SF-295; experiment: Growth inhibition of human SF-295 cells at 10 uM relative to control; format: functional; conditions: read-out: GI
[17] = system: ACHN; experiment: Growth inhibition of human ACHN cells at 10 uM relative to control; format: functional; conditions: read-out: GI
[18] = system: CCRF-CEM; experiment: Growth inhibition of human CCRF-CEM cells at 10 uM relative to control; format: functional; conditions: read-out: GI
[19] = system: PC-3; experiment: Growth inhibition of human PC-3 cells at 10 uM relative to control; format: functional; conditions: read-out: GI
[20] = system: K562; experiment: Growth inhibition of human K562 cells at 10 uM relative to control; format: functional; conditions: read-out: GI
[21] = system: SR; experiment: Growth inhibition of human SR cells at 10 uM relative to control; format: functional; conditions: read-out: GI
[22] = system: HCT-15; experiment: Growth inhibition of human HCT-15 cells at 10 uM relative to control; format: functional; conditions: read-out: GI
[23] = system: NCI-H23; experiment: Growth inhibition of human NCI-H23 cells at 10 uM relative to control; format: functional; conditions: read-out: GI
[24] = system: COLO 205; experiment: Growth inhibition of human COLO 205 cells at 10 uM relative to control; format: functional; conditions: read-out: GI
[25] = system: SK-OV-3; experiment: Growth inhibition of human SK-OV-3 cells at 10 uM relative to control; format: functional; conditions: read-out: GI
[26] = biological target: DNA; experiment: Displacement of methyl green from DNA (unknown origin) assessed as DNA intercalation after 24 hrs by colorimetric assay; format: nucleic-acid assay
[27] = system: HOP-62; experiment: Growth inhibition of human HOP-62 cells at 10 uM relative to control; format: functional; conditions: read-out: GI
[28] = system: OVCAR-5; experiment: Growth inhibition of human OVCAR-5 cells at 10 uM relative to control; format: functional; conditions: read-out: GI
[29] = system: NCI-H460; experiment: Growth inhibition of human NCI-H460 cells at 10 uM relative to control; format: functional; conditions: read-out: GI
[30] = system: Hs-578T; experiment: Growth inhibition of human Hs-578T cells at 10 uM relative to control; format: functional; conditions: read-out: GI
[31] = system: MDA-MB-468; experiment: Growth inhibition of human MDA-MB-468 cells at 10 uM relative to control; format: functional; conditions: read-out: GI
[32] = system: DU-145; experiment: Growth inhibition of human DU-145 cells at 10 uM relative to control; format: functional; conditions: read-out: GI
[33] = system: NCI/ADR-RES; experiment: Growth inhibition of human NCI/ADR-RES cells at 10 uM relative to control; format: functional; conditions: read-out: GI
[34] = system: 786-0; experiment: Growth inhibition of human 786-0 cells at 10 uM relative to control; format: functional; conditions: read-out: GI
[35] = system: SK-MEL-5; experiment: Growth inhibition of human SK-MEL-5 cells at 10 uM relative to control; format: functional; conditions: read-out: GI
[36] = system: SW-620; experiment: Growth inhibition of human SW-620 cells at 10 uM relative to control; format: functional; conditions: read-out: GI
[37] = system: NCI-H322M; experiment: Growth inhibition of human NCI-H322M cells at 10 uM relative to control; format: functional; conditions: read-out: GI
[38] = system: UACC-257; experiment: Growth inhibition of human UACC-257 cells at 10 uM relative to control; format: functional; conditions: read-out: GI
[39] = system: KM12; experiment: Growth inhibition of human KM12 cells at 10 uM relative to control; format: functional; conditions: read-out: GI
[40] = system: CAKI-1; experiment: Growth inhibition of human CAKI-1 cells at 10 uM relative to control; format: functional; conditions: read-out: GI
[41] = system: MCF7; experiment: Growth inhibition of human MCF7 cells at 10 uM relative to control; format: functional; conditions: read-out: GI
[42] = system: OVCAR-4; experiment: Growth inhibition of human OVCAR-4 cells at 10 uM relative to control; format: functional; conditions: read-out: GI
[43] = system: SK-MEL-2; experiment: Growth inhibition of human SK-MEL-2 cells at 10 uM relative to control; format: functional; conditions: read-out: GI
[44] = system: A498; experiment: Growth inhibition of human A498 cells at 10 uM relative to control; format: functional; conditions: read-out: GI
[45] = system: TK-10; experiment: Growth inhibition of human TK-10 cells at 10 uM relative to control; format: functional; conditions: read-out: GI
[46] = system: SNB-19; experiment: Growth inhibition of human SNB-19 cells at 10 uM relative to control; format: functional; conditions: read-out: GI
[47] = system: BT-549; experiment: Growth inhibition of human BT-549 cells at 10 uM relative to control; format: functional; conditions: read-out: GI
[48] = system: RXF 393; experiment: Growth inhibition of human RXF 393 cells at 10 uM relative to control; format: functional; conditions: read-out: GI
[49] = system: OVCAR-8; experiment: Growth inhibition of human OVCAR-8 cells at 10 uM relative to control; format: functional; conditions: read-out: GI
[50] = system: HCC 2998; experiment: Growth inhibition of human HCC 2998 cells at 10 uM relative to control; format: functional; conditions: read-out: GI
[51] = system: UACC-62; experiment: Growth inhibition of human UACC-62 cells at 10 uM relative to control; format: functional; conditions: read-out: GI
[52] = system: MOLT-4; experiment: Growth inhibition of human MOLT-4 cells at 10 uM relative to control; format: functional; conditions: read-out: GI
[53] = system: T47D; experiment: Growth inhibition of human T47D cells at 10 uM relative to control; format: functional; conditions: read-out: GI
[54] = system: MDA-MB-435; experiment: Growth inhibition of human MDA-MB-435 cells at 10 uM relative to control; format: functional; conditions: read-out: GI
[55] = system: SF-539; experiment: Growth inhibition of human SF-539 cells at 10 uM relative to control; format: functional; conditions: read-out: GI
[56] = system: MDA-MB-231; experiment: Growth inhibition of human MDA-MB-231 cells at 10 uM relative to control; format: functional; conditions: read-out: GI
[57] = system: HT-29; experiment: Growth inhibition of human HT-29 cells at 10 uM relative to control; format: functional; conditions: read-out: GI
[58] = system: SF-268; experiment: Growth inhibition of human SF-268 cells at 10 uM relative to control; format: functional; conditions: read-out: GI

CCOC(=O)C1=CSC2=NC(/C=C/c3ccc(Cl)cc3)=CC(c3ccc(Cl)cc3)N12 (stereo not drawn)
inhibition of growth at 10 µM [1]: < 10%
inhibition of growth at 10 µM [2]: < 10%
inhibition of growth at 10 µM [3]: 14.6%
inhibition of growth at 10 µM [4]: < 10%
inhibition of growth at 10 µM [5]: < 10%
inhibition of growth at 10 µM [6]: < 10%
inhibition of growth at 10 µM [7]: < 10%
inhibition of growth at 10 µM [8]: < 10%
inhibition of growth at 10 µM [9]: < 10%
inhibition of growth at 10 µM [10]: < 10%
inhibition of growth at 10 µM [11]: < 10%
inhibition of growth at 10 µM [12]: < 10%
inhibition of growth at 10 µM [13]: < 10%
inhibition of growth at 10 µM [14]: < 10%
inhibition of growth at 10 µM [15]: < 10%
inhibition of growth at 10 µM [16]: < 10%
inhibition of growth at 10 µM [17]: < 10%
inhibition of growth at 10 µM [18]: < 10%
inhibition of growth at 10 µM [19]: < 10%
inhibition of growth at 10 µM [20]: 12.4%
inhibition of growth at 10 µM [21]: < 10%
inhibition of growth at 10 µM [22]: < 10%
inhibition of growth at 10 µM [23]: < 10%
inhibition of growth at 10 µM [24]: < 10%
inhibition of growth at 10 µM [25]: < 10%
IC50 [26]: 79.28 µg/mL (≈ 173 µM)
inhibition of growth at 10 µM [27]: < 10%
inhibition of growth at 10 µM [28]: < 10%
inhibition of growth at 10 µM [29]: < 10%
inhibition of growth at 10 µM [30]: < 10%
inhibition of growth at 10 µM [31]: < 10%
inhibition of growth at 10 µM [32]: < 10%
inhibition of growth at 10 µM [33]: < 10%
inhibition of growth at 10 µM [34]: < 10%
inhibition of growth at 10 µM [35]: < 10%
inhibition of growth at 10 µM [36]: < 10%
inhibition of growth at 10 µM [37]: < 10%
inhibition of growth at 10 µM [38]: < 10%
inhibition of growth at 10 µM [39]: < 10%
inhibition of growth at 10 µM [40]: < 10%
inhibition of growth at 10 µM [41]: < 10%
inhibition of growth at 10 µM [42]: < 10%
inhibition of growth at 10 µM [43]: < 10%
inhibition of growth at 10 µM [44]: 11.8%
inhibition of growth at 10 µM [45]: < 10%
inhibition of growth at 10 µM [46]: < 10%
inhibition of growth at 10 µM [47]: < 10%
inhibition of growth at 10 µM [48]: < 10%
inhibition of growth at 10 µM [49]: < 10%
inhibition of growth at 10 µM [50]: < 10%
inhibition of growth at 10 µM [51]: < 10%
inhibition of growth at 10 µM [52]: 16.7%
inhibition of growth at 10 µM [53]: < 10%
inhibition of growth at 10 µM [54]: < 10%
inhibition of growth at 10 µM [55]: < 10%
inhibition of growth at 10 µM [56]: < 10%
inhibition of growth at 10 µM [57]: < 10%
inhibition of growth at 10 µM [58]: < 10%
